According to ChEMBL document CHEMBL4732046, “A red-light-activated sulfonamide porphycene for highly efficient photodynamic therapy against hypoxic tumor” (Eur J Med Chem, 2021):
The source made the active and inactive calls. The calls are words filed in the database; no cut-off is given here.

Experiments:
A-375 [1] = assay: Induction of apoptosis in human A-375 cells assessed as decrease in Bcl2 level at 100 to 300 nM irradiated with 640 +/- 15 nm red LED for 1 hrs measured after 24 hrs by Western blot analysis; assay type: functional, cell-based; conditions: dose 100-300 nM
B16 [2] = assay: Induction of morphological changes in mouse B16 cells assessed as nuclear shrinkage at 200 to 400 nM incubated for 24 hrs by Hoechst 33258 staining based assay; assay type: functional, cell-based; conditions: dose 200-400 nM
[3] = Toxicity in C57BL/6 mouse model assessed as effect on lungs treated intratumorally once every 2 days for 2 weeks followed every dosing irradiated with 640 +/- 15 nm red LED for 4 hrs measured upto 28 days by H and E staining dependent light microscopy based histopathological analysis; conditions: in vivo, other, time <=28 day
KYSE-70 cell line = assay: Photocytotoxicity against human KYSE-70 cells assessed as reduction in cell viability irradiated with 640 +/- 15 nm red LED for 4 hrs measured after 24 hrs under hypoxic condition by MTT assay; assay type: functional, cell-based; conditions: KYSE-70, light or radiation study
[4] = Toxicity in C57BL/6 mouse model assessed as change in platelet count measured after 14 days; conditions: 336 h, time 14 day
B16 [5] = assay: Induction of mitochondrial membrane potential disruption in mouse B16 cells assessed as reduction in red fluorescence upto 400 nM irradiated with 640 +/- 15 nm red LED for 1 hrs measured after 24 hrs by JC1 staining based fluorescence microscopy; assay type: functional, cell-based; conditions: dose nM <=400, time 24.0 hrs
[6] = Toxicity in C57BL/6 mouse model assessed as effect on heart treated intratumorally once every 2 days for 2 weeks followed every dosing irradiated with 640 +/- 15 nm red LED for 4 hrs measured upto 28 days by H and E staining dependent light microscopy based histopathological analysis; assay type: tissue-based; conditions: in vivo, other, time <=28 day
A-375 [7] = assay: Antitumor activity against human A-375 cells xenografted in BALB/c mouse assessed as reduction in tumor volume at 50 uM, IT once every 2 days for 2 weeks followed every dosing irradiated with 640 +/- 15 nm red LED for 4 hrs; assay type: functional, cell-based
[8] = Toxicity in C57BL/6 mouse model assessed as effect on liver treated intratumorally once every 2 days for 2 weeks followed every dosing irradiated with 640 +/- 15 nm red LED for 4 hrs measured upto 28 days by H and E staining dependent light microscopy based histopathological analysis; assay type: tissue-based; conditions: in vivo, other, time <=28 day
[9] = Toxicity in C57BL/6 mouse assessed as effect on alanine aminotransferase level measured after 2 days; conditions: in vivo, 48 h, time 2 day
[10] = Toxicity in C57BL/6 mouse model assessed as effect on spleen treated intratumorally once every 2 days for 2 weeks followed every dosing irradiated with 640 +/- 15 nm red LED for 4 hrs measured upto 28 days by H and E staining dependent light microscopy based histopathological analysis; assay type: tissue-based; conditions: in vivo, other, time <=28 day
A-375 [11] = assay: Induction of intracellular reactive oxygen species production in human A-375 cells irradiated with 640 +/- 15 nm red LED for 1 hrs measured after 4 hrs by DCFH-DA probe based flow cytometry; assay type: functional, cell-based; conditions: dose nM <=300, time 4.0 hrs
A-375 [12] = assay: (§1) Antitumor activity against human A-375 cells xenografted in BALB/c mouse assessed as tumor growth inhibition by measuring nuclear TUNEL-positive treated at high dose intratumorally once every 2 days for 2 weeks followed every dosing irradiated with 640 +/- 15 nm red LED for 4 hrs measured after 14 days treatment; assay type: functional, cell-based; conditions: time 14.0 day
B16 [13] = assay: Induction of intracellular reactive oxygen species production in mouse B16 cells assessed as […] membrane damage at 200 nM irradiated with 640 +/- 15 nm red LED for 1 hr measured after 4 hrs by mito-tracker green based confocal microscopic method; assay type: functional, cell-based
A-375 [14] = assay: as §1, with “pyknosis” for “TUNEL-positive”; assay type: functional, cell-based; conditions: time 14.0 day
[15] = Drug uptake in mouse B16 cells upto 2 hrs by flow cytometric analysis; assay type: ADME, cell-based; conditions: b16, 2 h
A-375 [16] = assay: Induction of apoptosis in human A-375 cells assessed as increase in Bax level at 100 to 300 nM irradiated with 640 +/- 15 nm red LED for 1 hrs measured after 24 hrs by Western blot analysis; assay type: functional, cell-based; conditions: dose 100-300 nM
HeLa = assay: Photo-therapeutic index, ratio of LD50 for photocytotoxicity against human HeLa cells assessed as reduction in cell viability irradiated with 640 +/- 15 nm red LED for 4 hrs measured after 24 hrs by MTT assay to LD50 for cytotoxicity against human HeLa cells assessed as cell viability in dark measured after 24 hrs by MTT assay; assay type: functional
A-375 [17] = assay: Photocytotoxicity against human A-375 cells assessed as reduction in cell viability irradiated with 640 +/- 15 nm red LED for 4 hrs measured after 24 hrs under hypoxic condition by MTT assay; assay type: functional, cell-based; conditions: A-375, light or radiation study
B16 [18] = assay: Antitumor activity against mouse B16 cells xenografted in C57BL/6J mouse assessed as reduction in tumor volume at high dose intratumorally once every 2 days for 2 weeks followed every dosing irradiated with 640 +/- 15 nm red LED for 4 hrs measured after 14 days treatment; assay type: functional, cell-based; conditions: time 14.0 day
[19] = Drug uptake in human A-375 cells mitochondria incubated for 24 hrs by mito-tracker green based confocal microscopic method; assay type: ADME; conditions: a-375, 24 h
B16 [20] = assay: Photocytotoxicity against mouse B16 cells assessed as reduction in cell viability irradiated with 640 +/- 15 nm red LED for 4 hrs measured after 24 hrs under hypoxic condition by MTT assay; assay type: functional, cell-based; conditions: B16, light or radiation study
B16 [21] = assay: as §1, with “mouse B16” for “human A-375”, “C57BL/6” for “BALB/c”, “pyknosis” for “TUNEL-positive”; assay type: functional, cell-based; conditions: time 14.0 day
B16 [22] = assay: as §1, with “mouse B16” for “human A-375”, “C57BL/6” for “BALB/c”; assay type: functional, cell-based; conditions: time 14.0 day
B16 [23] = assay: Induction of apoptosis in mouse B16 cells assessed as apoptotic cells at 400 nM irradiated with 640 +/- 15 nm red LED for 1 hrs after 24 hrs by Annexin V-FITC/propidium iodide staining based flow cytometric analysis relative to control; assay type: functional, cell-based
[24] = Toxicity in C57BL/6 mouse assessed as effect on serum creatinine level measured upto 14 days; conditions: in vivo, 336 h, time <=14 day
[25] = Drug uptake in mouse B16 cells mitochondria incubated for 24 hrs by mito-tracker green based confocal microscopic method; assay type: ADME; conditions: b16, 24 h
B16 [26] = assay: Induction of morphological changes in mouse B16 cells assessed as chromatin condensation at 200 to 400 nM incubated for 24 hrs by Hoechst 33258 staining based assay; assay type: functional, cell-based; conditions: dose 200-400 nM
B16 [27] = assay: Induction of apoptosis in mouse B16 cells assessed as apoptotic cells at 200 nM irradiated with 640 +/- 15 nm red LED for 1 hrs after 24 hrs by Annexin V-FITC/propidium iodide staining based flow cytometric analysis relative to control; assay type: functional, cell-based
B16 [28] = assay: Induction of apoptosis in mouse B16 cells assessed as increase in Bax level at 200 to 400 nM irradiated with 640 +/- 15 nm red LED for 1 hrs measured after 24 hrs by Western blot analysis; assay type: functional, cell-based; conditions: dose 200-400 nM
[29] = Toxicity in C57BL/6 mouse model assessed as effect on kidney treated intratumorally once every 2 days for 2 weeks followed every dosing irradiated with 640 +/- 15 nm red LED for 4 hrs measured upto 28 days by H and E staining dependent light microscopy based histopathological analysis; assay type: tissue-based; conditions: in vivo, other, time <=28 day
A-375 [30] = assay: Induction of apoptosis in human A-375 cells assessed as increase in Bad level at 100 to 300 nM irradiated with 640 +/- 15 nm red LED for 1 hrs measured after 24 hrs by Western blot analysis; assay type: functional, cell-based; conditions: dose 100-300 nM

For `CC(C)(C)C1=Cc2nc1ccc1[nH]c(cc1S(=O)(=O)NCCOCCO)c1nc(ccc3[nH]c2cc3C(C)(C)C)C(C(C)(C)C)=C1`, the Activity (A-375 [1]) was “Active”, the Activity (B16 [2]) was “Active” and the Activity [3] was “Non-Toxic”. The DC50 (KYSE-70 cell line) was 51 nM, the Activity [4] was “Non-Toxic” and the Activity (B16 [5]) was “Active”. For the same compound, the Activity [6] was “Non-Toxic”, the Activity (A-375 [7]) was “Active” and the Activity [8] was “Non-Toxic”. For the same compound, the Activity [9] was “Toxic”, the Activity [10] was “Non-Toxic” and the Activity (A-375 [11]) was “Dose-dependent effect”. For the same compound, the Activity (A-375 [12]) was “Active”, the Activity (B16 [13]) was “Active” and the Activity (A-375 [14]) was “Active”. For the same compound, the Drug uptake [15] was “Active”, the Activity (A-375 [16]) was “Active” and the Ratio (HeLa) was >2040. The DC50 (A-375 [17]) was 324 nM, the Activity (B16 [18]) was “Active” and the Drug uptake [19] was “Active”. For the same compound, the DC50 (B16 [20]) was 360 nM, the Activity (B16 [21]) was “Active” and the Activity (B16 [22]) was “Active”. For the same compound, the Activity (B16 [23]) was “Active”, the Activity [24] was “Non-Toxic” and the Drug uptake [25] was “Active”. The Activity (B16 [26]) was “Active”, the Activity (B16 [27]) was “Active” and the Activity (B16 [28]) was “Active”. The Activity [29] was “Non-Toxic” and the Activity (A-375 [30]) was “Active”.
